Assay results reported in ChEMBL document CHEMBL1201862, “PubChem BioAssay data set” (2004).
Calls of active or inactive are those of the source.

Tests used:
[1] = biological target: T1, Heat shock factor protein 1 (Mus musculus, UniProt P38532); test: enhancement of HSF1-driven luciferase signal – cell-based, NIH3T3, luminescence, dose retest, confirmation (AID 435004); type: functional;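 also: stress induced by proteasome inhibitor MG132 added 30 min after compound; luciferase reporter driven by HSF1 response element in NIH3T3 cells; actives raise luminescence as potentiators of the MG132 stress response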
T1 sequence (P38532 whole entry): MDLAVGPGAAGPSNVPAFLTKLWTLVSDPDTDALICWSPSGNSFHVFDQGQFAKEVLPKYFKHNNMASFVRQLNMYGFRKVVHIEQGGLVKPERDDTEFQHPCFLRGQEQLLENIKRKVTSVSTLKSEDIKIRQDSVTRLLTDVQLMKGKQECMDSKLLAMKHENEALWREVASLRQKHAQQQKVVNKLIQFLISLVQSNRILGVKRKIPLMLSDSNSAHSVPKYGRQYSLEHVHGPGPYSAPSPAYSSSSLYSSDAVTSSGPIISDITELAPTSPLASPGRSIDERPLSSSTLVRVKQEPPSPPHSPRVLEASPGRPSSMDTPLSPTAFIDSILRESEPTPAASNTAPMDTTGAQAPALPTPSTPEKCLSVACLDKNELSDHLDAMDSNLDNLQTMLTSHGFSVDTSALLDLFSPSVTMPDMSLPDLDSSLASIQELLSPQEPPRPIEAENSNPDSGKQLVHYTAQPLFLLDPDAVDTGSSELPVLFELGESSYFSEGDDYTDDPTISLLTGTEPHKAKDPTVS

[2] = biological target: T2, Cytochrome P450 1A2 (Homo sapiens, UniProt P05177);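 also: PubChem cytochrome P450 panel assay, CYP1A2 panel member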
T2 sequence (P05177 whole entry): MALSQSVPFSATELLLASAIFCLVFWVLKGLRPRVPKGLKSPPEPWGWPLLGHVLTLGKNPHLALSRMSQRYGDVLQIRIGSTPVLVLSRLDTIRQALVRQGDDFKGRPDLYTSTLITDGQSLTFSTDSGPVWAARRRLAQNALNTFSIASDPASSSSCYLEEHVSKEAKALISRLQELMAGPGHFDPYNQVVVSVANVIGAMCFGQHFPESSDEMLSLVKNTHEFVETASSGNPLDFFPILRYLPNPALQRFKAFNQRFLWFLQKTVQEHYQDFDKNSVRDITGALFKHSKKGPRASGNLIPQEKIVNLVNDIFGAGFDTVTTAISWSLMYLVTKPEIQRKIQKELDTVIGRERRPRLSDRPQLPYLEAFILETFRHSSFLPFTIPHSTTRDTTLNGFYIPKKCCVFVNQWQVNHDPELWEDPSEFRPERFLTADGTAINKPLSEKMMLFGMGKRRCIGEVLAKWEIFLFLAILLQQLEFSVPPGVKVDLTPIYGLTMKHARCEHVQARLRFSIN

[3] = biological target: Cytochrome P450 2C19 (Homo sapiens, UniProt P33261); test: Cytochrome panel assay with activity outcomes. Panel member name: p450-cyp2c19 Compounds with AC50 equal or less than 10 uM are considered active; type: functional; settings: read-out: AC50
Cytochrome P450 2C19, sequence (P33261 whole entry): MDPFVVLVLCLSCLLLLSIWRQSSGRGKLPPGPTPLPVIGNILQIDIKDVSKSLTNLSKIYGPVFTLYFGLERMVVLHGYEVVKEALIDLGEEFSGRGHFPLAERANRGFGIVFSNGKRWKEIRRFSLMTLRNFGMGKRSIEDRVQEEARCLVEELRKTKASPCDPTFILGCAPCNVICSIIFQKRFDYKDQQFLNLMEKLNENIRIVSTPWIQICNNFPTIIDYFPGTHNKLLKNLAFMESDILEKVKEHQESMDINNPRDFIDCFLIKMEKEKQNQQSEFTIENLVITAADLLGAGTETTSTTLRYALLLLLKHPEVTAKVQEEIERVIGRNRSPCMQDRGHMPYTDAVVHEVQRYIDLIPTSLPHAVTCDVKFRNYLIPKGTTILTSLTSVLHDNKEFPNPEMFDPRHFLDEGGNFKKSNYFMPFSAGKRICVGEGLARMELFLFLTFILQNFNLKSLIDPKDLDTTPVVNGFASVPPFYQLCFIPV

[4] = Trypanosoma cruzi growth suppression in host cells – NIH3T3 host cells, beta-gal luminescence, confirmation (AID 2044); type: functional, cell-based;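 also: intracellular parasites grown in NIH/3T3 mouse fibroblasts as host cells; luminescent beta-galactosidase reporter signal from transgenic T. cruzi replicating inside host cells; inhibitors lower the luminescence signal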
[5] = NIH3T3 cell viability loss – ATP luminescence, mouse fibroblasts, counter-screen, dose response (AID 2010); type: functional, cell-based;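 also: cells exposed to compound for about 90 hours before reading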
[6] = biological target: Cytochrome P450 2D6 (Homo sapiens, UniProt P10635);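 also: CYP2D6 member of a cytochrome P450 panel assay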
Cytochrome P450 2D6, sequence (P10635 whole entry): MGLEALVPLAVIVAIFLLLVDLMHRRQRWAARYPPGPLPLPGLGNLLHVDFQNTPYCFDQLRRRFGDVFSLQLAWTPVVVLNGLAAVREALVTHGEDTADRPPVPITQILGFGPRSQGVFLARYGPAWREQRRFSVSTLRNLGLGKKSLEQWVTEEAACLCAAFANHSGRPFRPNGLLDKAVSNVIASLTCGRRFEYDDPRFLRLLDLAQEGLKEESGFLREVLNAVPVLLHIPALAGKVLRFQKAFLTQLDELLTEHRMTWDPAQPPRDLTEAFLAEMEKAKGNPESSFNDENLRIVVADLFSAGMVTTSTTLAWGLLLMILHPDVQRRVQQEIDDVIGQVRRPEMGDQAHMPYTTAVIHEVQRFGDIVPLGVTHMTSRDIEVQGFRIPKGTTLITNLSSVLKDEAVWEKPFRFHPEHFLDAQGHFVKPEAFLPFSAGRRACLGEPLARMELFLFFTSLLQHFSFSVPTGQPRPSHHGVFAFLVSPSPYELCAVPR

[7] = biological target: Cytochrome P450 2C9 (Homo sapiens, UniProt P11712)
Cytochrome P450 2C9, sequence (P11712 whole entry): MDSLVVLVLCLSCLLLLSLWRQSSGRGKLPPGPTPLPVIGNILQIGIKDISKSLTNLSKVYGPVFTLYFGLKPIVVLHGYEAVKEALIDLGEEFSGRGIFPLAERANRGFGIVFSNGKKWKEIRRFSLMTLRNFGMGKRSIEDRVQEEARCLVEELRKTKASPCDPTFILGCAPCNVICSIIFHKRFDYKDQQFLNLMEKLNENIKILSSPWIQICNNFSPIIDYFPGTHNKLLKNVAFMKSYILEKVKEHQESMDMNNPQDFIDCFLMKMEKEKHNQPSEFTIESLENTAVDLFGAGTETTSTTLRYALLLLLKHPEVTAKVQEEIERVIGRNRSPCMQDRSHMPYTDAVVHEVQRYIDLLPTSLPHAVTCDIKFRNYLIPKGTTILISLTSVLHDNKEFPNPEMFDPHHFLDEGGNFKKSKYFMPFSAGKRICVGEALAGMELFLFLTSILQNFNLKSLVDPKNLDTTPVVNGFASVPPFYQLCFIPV

[8] = biological target: Cytochrome P450 3A4 (Homo sapiens, UniProt P08684);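 also: CYP3A4 tested as one member of a cytochrome P450 panel screen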
Cytochrome P450 3A4, sequence (P08684 whole entry): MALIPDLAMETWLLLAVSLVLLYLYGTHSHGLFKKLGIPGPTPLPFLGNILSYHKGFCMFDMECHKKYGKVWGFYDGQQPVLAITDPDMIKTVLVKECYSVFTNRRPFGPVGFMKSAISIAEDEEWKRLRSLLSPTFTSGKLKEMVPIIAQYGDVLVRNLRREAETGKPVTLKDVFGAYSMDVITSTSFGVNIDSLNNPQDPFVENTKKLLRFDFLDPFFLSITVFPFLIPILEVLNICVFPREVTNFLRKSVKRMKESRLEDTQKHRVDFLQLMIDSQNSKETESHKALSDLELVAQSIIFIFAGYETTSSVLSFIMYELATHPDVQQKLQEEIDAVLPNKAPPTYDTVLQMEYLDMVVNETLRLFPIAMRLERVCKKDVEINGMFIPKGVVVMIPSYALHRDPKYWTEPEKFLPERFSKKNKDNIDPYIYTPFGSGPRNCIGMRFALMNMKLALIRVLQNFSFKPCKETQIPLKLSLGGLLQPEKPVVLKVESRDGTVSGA

[9] = biological target: T3, Rac GTPase-activating protein 1 (Homo sapiens, UniProt Q9H0H5); test: blockers of MgcRacGAP-driven Rac1 GTP hydrolysis – biochemical, ADP Hunter fluorescence, primary and confirmatory, confirmation (AID 624330); type: functional
T3 sequence (Q9H0H5 whole entry): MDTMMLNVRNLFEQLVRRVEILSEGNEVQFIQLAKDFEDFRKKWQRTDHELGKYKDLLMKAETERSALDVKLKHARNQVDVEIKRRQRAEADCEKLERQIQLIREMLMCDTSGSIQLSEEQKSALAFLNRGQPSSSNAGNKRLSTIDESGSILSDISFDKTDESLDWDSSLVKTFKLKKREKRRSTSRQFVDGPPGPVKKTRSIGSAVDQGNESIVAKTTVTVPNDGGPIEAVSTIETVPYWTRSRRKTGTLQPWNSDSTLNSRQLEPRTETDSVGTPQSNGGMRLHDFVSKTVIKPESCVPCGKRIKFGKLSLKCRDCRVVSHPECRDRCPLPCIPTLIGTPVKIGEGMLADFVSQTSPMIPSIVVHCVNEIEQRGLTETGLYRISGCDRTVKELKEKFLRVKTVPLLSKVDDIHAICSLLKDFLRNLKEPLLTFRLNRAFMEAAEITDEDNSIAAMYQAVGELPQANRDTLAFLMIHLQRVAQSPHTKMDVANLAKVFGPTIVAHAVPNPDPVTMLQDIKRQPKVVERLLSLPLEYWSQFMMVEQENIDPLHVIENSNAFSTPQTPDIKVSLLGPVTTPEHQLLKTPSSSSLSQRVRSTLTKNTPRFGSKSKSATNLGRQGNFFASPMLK

[10] = viability of uninfected HEp-2 cells – cell-based, HTS, cytotoxicity control for RSV inhibitor project, dose response (AID 2410); type: functional; settings: human respiratory syncytial virus

SMILES: COc1ccc(CN2CCNC(=O)C2CC(=O)NCC2CCOCC2)cc1C (configuration not stated)
- EC50 [1]: > 260 µM (inactive)

SMILES: CCCCCNCc1cccc(Br)c1
- AC50 [2]: 15.8 µM (inconclusive)

SMILES: NC1=NC2(CCCCCC2)n2c(nc3ccccc32)N1
- AC50 [3]: 22.4 µM (inconclusive)
- AC50 [2]: 28.2 µM (inconclusive)

SMILES: CC12CN(C(S)=Nc3ccccc3)CC(C)(CN(C(S)=Nc3ccccc3)C1)C2=O
- EC50 [1]: > 260 µM (inactive)

SMILES: Cc1ccccc1-c1nnc(CS(=O)(=O)c2ccccc2)o1
- EC50 [1]: > 260 µM (inactive)

SMILES: O=[N+]([O-])c1ccc(S(=O)(=O)N(Cc2cccnc2)Cc2cc3ccccc3nc2O)cc1
- EC50 [4]: 1.84 µM (active)
- EC50 [5]: > 60 µM (not active)
- EC50 [1]: > 260 µM (inactive)

SMILES: COC(=O)C1CC1C(NC(=O)[C@@H]1CCCN1)c1ccccc1 (some centres not stated)
- AC50 [3]: 39.8 µM (inconclusive)
- AC50 [6]: 20 µM (inconclusive)
- AC50 [2]: 15.8 µM (inconclusive)

SMILES: COc1ccc(NC(=O)N2CCC3(CC2)CCN(C(=O)c2ccco2)CC3)cc1
- AC50 [2]: 20 µM (inconclusive)

SMILES: C[C@@]12C=CC(=O)C=C1CC[C@@H]1C2=CC[C@]2(C)[C@@H]1CC[C@H]2C(=O)CN1CCN(c2cc(N3CCCC3)nc(N3CCCC3)n2)CC1
- AC50 [6]: 25.1 µM (inconclusive)
- AC50 [2]: 12.6 µM (inconclusive)
- AC50 [7]: 12.6 µM (inconclusive)

SMILES: CCS(=O)(=O)N1CCc2nc(-c3ccccc3)sc2C1
- EC50 [1]: > 260 µM (inactive)

SMILES: CCOC(=O)N1CCN(C(=O)CCn2nc(-c3ccccc3)ccc2=O)CC1
- AC50 [2]: 15.8 µM (inconclusive)

SMILES: COC(=O)N1CCC2(CCCN(C(=O)Nc3ccc(OC)cc3)C2)CC1
- AC50 [2]: 20 µM (inconclusive)
- AC50 [8]: 25.1 µM (inconclusive)

SMILES: COc1cc(OC)c(N(C)S(=O)(=O)c2cccc(C(=O)Nc3nnc(C4CC4)s3)c2)cc1Cl
- EC50 [1]: 203 µM (active)

SMILES: C=CCNC1=C(C(=O)CCC(=O)OC)C(=O)CC(C)(C)C1
- AC50 [2]: 2.51 µM (inconclusive)

SMILES: CN1CCN(Cc2coc3c(Cl)cc(Cl)cc3c2=O)CC1
- IC50 [9]: 79 µM (active)

SMILES: O=C(CCN1C(=O)c2ccccc2C1=O)Nc1sc2c(c1C(=O)NCC1CCCO1)CCC2 (configuration not stated)
- EC50 [1]: > 260 µM (inactive)

SMILES: Nc1cc[n+](CC(=O)Nc2ccccc2)cc1
- EC50 [1]: > 260 µM (inactive)

SMILES: O=C1NC(=S)NC1=Cc1ccc(O)cc1
- IC50 [9]: 9.78 µM (active)

SMILES: Cc1ccc(NC(=O)Cn2cnc3c(cnn3C(C)(C)C)c2=O)cc1
- AC50 [6]: 14.1 µM (inconclusive)
- AC50 [2]: 31.6 µM (inconclusive)
- AC50 [8]: 12.6 µM (inconclusive)

SMILES: Cc1ccc(NCc2ccco2)cc1C
- IC50 [9]: 123 µM (active)

SMILES: Cc1ncc2c(c1O)COP(=O)(O)OC2
- AC50 [3]: 5.01 µM (inconclusive)
- AC50 [2]: 31.6 µM (inconclusive)

SMILES: CCN1CCCC1CNCC(=O)Nc1ccc(OC(F)(F)F)cc1 (configuration not stated)
- IC50 [9]: 115 µM (active)

SMILES: CC(C)c1nnc(SCc2ccc(CSc3nnc(C(C)C)n3N)cc2)n1N
- EC50 [1]: > 260 µM (inactive)

SMILES: Oc1ccc(NC(S)=Nc2ccc(F)cc2)cc1
- IC50 [9]: 67.5 µM (active)

SMILES: C/N=C\c1cc(-c2ccccc2)sc1O
- IC50 [9]: 199 µM (active)

SMILES: Cc1cc(-c2ccccc2)nc2c(Br)c(=O)[nH]n12
- IC50 [9]: 210 µM (active)

SMILES: CCOC(=O)C1(CCOc2ccccc2)CCN(Cc2cc(OC)c3c(c2)OCO3)CC1
- EC50 [4]: 2.65 µM (active)
- EC50 [5]: > 60 µM (not active)
- EC50 [1]: > 260 µM (inactive)

SMILES: Cc1nn(Cc2ccccc2Cl)c(C)c1NC(=O)CCCn1nc([N+](=O)[O-])c(Cl)c1C
- EC50 [4]: 0.514 µM (active)
- EC50 [5]: > 60 µM (not active)
- EC50 [1]: > 260 µM (inactive)

SMILES: CCOC(=O)CSC1=NC(=O)/C(=C\c2ccc(Cl)cc2)S1
- CC50 [10]: 18.9 µM (active)
- EC50 [1]: 2.74 µM (active)
- AC50 [3]: 3.16 µM (inconclusive)

SMILES: Cn1cnc([N+](=O)[O-])c1Sc1nc(N)nc2c1ncn2[C@H]1C[C@H](O)[C@@H](CO)O1
- AC50 [2]: 6.31 µM (inconclusive)
